The values below come from patent US20240228481A1, “NOVEL SULFONAMIDE SERIES OF QR2 INHIBITORS TO TACKLE OXIDATIVE STRESS AND COGNITIVE DECLINE” (CARMEL HAIFA UNIVERSITY ECONOMIC CORPORATION LTD., priority 2021, published 2024).

Structures can show the parent of a compound that is named as a salt.

What is called IC50 is the concentration at which inhibition is half-maximal. A high value points to weaker potency.

Data set [1] relates to C57BL/6 mice. The experiment in a line: Delay fear conditioning after microinjection to CA1. The data set is classed as in vivo, mouse. Conditions: 5 μM to CA1. The text has this:
Mice were anesthetized under 2% isoflurane, using an induction box (HME109, Highland Medical Equipment). They were placed in a stereotaxic device (Kopf Stereotaxic Alignment System, model 1900) under continuous 1% isoflurane anesthesia. Guide cannulas were implanted bilaterally to CA1 (from bregma: −1.9 mm AP, ±1.4 mm ML, −1.6 mm DV), cemented to the skull and fitted with 28-gauge dummy cannulas extending 0.2 mm beyond the tip of the 1.2 mm guide cannulas. The mice were allowed at least 7 days of recovery before experimentation. The QR2 inhibitor YB-808 was dissolved in DMSO and further diluted in saline to a final DMSO concentration of 0.1%. YB-537 was dissolved in saline (0.9%). A total of 1 μl of 5 μM of either compound or vehicle was infused bilaterally to CA1, via a 28-gauge infusion cannula projecting 0.4 mm (drug delivery depth bregma: −1.6 mm DV) beyond the guide cannula, connected by polyethylene tubing to a 10 μl syringe (Hamilton) over the course of 1 min. The injection cannula was kept for 60 s inside the guide cannula in order prevent osmotic seepage of the doses upward through the cannula tract. Twenty minutes following the injection, animals underwent delay fear conditioning. Following experimentation, animals were sacrificed, brains were excised and sectioned in coronal sections, and cannula implantation was validated by imaging. […]

In data set [2] the test system is HCT116 QR2Δ cells. Description: H2DCFDA detection of cellular ROS in HCT116 QR2Δ cells. The data set is classed as cell-based, human. Conditions: 20 μM, 3 h. The text has this: Additional details of the knockout procedure and corresponding figures have been previously published. Disruption of the NQO2 gene at positions 46 and 108 within exon 4 was done using CRISPR/Cas9 dual nickase (plasmid pSpCas9n(BB)-2A-Puro (PX462), Addgene #48141). The target sequence was selected using a CRISPR design tool (http://crispr.mit.edu/), which identified the guide sequences with the least off-targets. Vectors NQ024_46 and NQ024_108 were produced by cloning oligonucleotides corresponding to guide RNA (sgRNA) into PX462 as previously described. The vectors were then transfected into HCT 116 cells (at 70% confluence) using Lipofectamine 2000 (Life Technologies), and 24 h later 0.7 μg/mL puromycin (Alfa Aesar) was added to the media for 72 h. Cells that survived were then collected and serially diluted into 96 well plates, with puromycin supplemented media, to enable selection and expansion of plasmid containing colonies two weeks later.
The cells were harvested and resuspended in 1% clear medium (DMEM—with no phenol red, supplemented with 1% FBS, 1% L-Glutamine and 1% Penicillin-Streptomycin). […] The plate was then incubated in the dark at 37° C. for 3 h, before reading in a Tecan M200 Pro florescence microplate reader, using wavelengths Ex/Em=485 nm/535 nm.

Data set [3] deals with T1, QR2 (Homo sapiens, UniProt P16083).
T1 sequence (P16083 1-231): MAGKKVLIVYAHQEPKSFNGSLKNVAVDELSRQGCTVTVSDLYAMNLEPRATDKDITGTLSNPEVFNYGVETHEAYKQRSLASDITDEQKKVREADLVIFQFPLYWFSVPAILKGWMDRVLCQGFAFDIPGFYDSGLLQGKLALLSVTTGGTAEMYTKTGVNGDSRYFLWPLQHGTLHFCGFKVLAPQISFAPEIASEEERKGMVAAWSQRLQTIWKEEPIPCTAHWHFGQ
The experiment in a line: QR2 enzymatic activity assay (menadione/BNAH), absorbance readout at 350 nm. The data set is classed as biochemical. Also noted: purchased Sigma-Aldrich.

Data set [4] is described as follows: Cell toxicity assay (ATP depletion, CellTiter Glo). Conditions: human. (In general: ATP-based viability assays read luminescence as a measure of living cells.)
Description: THLE-2 (CRL-2706™) were grown in the BEGM Bullet Kit (CC-3170) from Lonza. Besides the additives contained in the kit, the medium was further supplemented with 5 ng/mL EGF (Sigma), 70 ng/mL phosphoethanolamine (Sigma) and 10% FBS (Biological Industries). The plates for the THLE-2 needed to be pre-coated with a mixture of 0.01 mg/mL fibronectin, 0.05 mg/mL of PureCol™ EZ Gel Solution (Sigma) and 0.01 mg/mL of BSA dissolved in BEBM medium (Lonza). The coating medium was aspirated before seeding.
THLE-2 cells were exposed to the compounds in a 9-point, 2-fold dilution dose response series with a 100 μM as upper limit, for 72 h. Following the 72 h of exposure to the test compounds, cell viability was determined by measuring the concentration of cellular ATP (CellTiter Glo, Promega). The luminescence signal was measured on a Pherastar FS multi-mode plate reader (BMG Labtech). Each data point was tested in a triplicate.
First, toxicity was assessed in an ATP depletion assay, using THLE-2 cells following a 72 h exposure to a dose response of each of the tested compounds.

Regarding `Cc1ccc(-c2cn3cccc(C)c3n2)cc1S(=O)(=O)N1CCNCC1` [YB-537, 8-methyl-2-(4-methyl-3-(piperazin-1-ylsulfonyl)phenyl)imidazo[1,2-a]pyridine hydrochloride], the baseline freezing in data set [1] is 3.595±1.244%.
Regarding `Cc1cccn2cc(-c3cccc(S(=O)(=O)N4CCC(C)CC4)c3)nc12` [YB-800], the “baseline ROS levels” value in data set [2] was −0.009±0.049 AU. In data set [3], this compound yielded a half-inhibitory concentration (IC50) of 0.02 µM. This compound yielded an IC50 at 72 h in data set [4] of 78.4 µM.
